Like-named read-outs stand apart in the source and are kept apart here.
What was measured:
[1] = system: Agrotis ipsilon larvae; test: Control of cutworm: greenhouse tray test on maize, soil application, larval mortality; assay type: in vivo; details: 168 h, infested 7 days after application, read-out: Corr. Mortality (%) 5 DAI
Description: (§1) Plastic trays (13×18×11.5 cm) with 4 holes in the bottom were filled with a filter paper and 400 mL Drench soil. 8 maize seeds (2 rows with 4 seeds each) were placed on the soil. Compound solution was applied with a track-sprayer at 200 L/ha. After drying seeds were covered with 200 mL untreated Drench soil and evened. Trays were incubated in a greenhouse chamber (25° C., 50% r.h., 14 h light (>20′000 lux)) and watered daily. 7 days after application each tray was infested with 5 (6 replicates) Agrotis ipsilon larvae. After infestation all trays were covered with a plastic lid, which was perforated with 6-9 holes for ventilation. 5 days after infestation the survived larvae were counted. Also assessed was the larval growth (size difference between compound replicates and control). TEFL=Tefluthrin.

[2] = system: Diabrotica balteata larvae; test: Control of rootworm: greenhouse tray test on maize, soil application, larval mortality; assay type: in vivo; details: 168 h, infested 7 days after application, read-out: Corr. Mortality (%) 5 DAI
Description: as §1, with “(>20,000” for “(>20′000”, “10 (3” for “5 (6”, “Diabrotica balteata” for “Agrotis ipsilon”

[3] = w/15% Nachurs 6-24-6, 25 ppm AI
[4] = w/15% Nachurs 6-24-6, 100 ppm AI
[5] = w/30% Nachurs 6-24-6, 25 ppm AI
[6] = w/30% Nachurs 6-24-6, 100 ppm AI

Question: `Cc1c(F)c(F)c(COC(=O)[C@@H]2[C@H](/C=C(\Cl)C(F)(F)F)C2(C)C)c(F)c1F` (racemic) [TEFL, Tefluthrin] was tested. Which mortality at 25 ppm ([1]; no fertilizer, 25 ppm AI) did it give?
Answer: 38%

Question: And the mortality at 100 ppm ([1]; no fertilizer, 100 ppm AI)?
Answer: 25%

Question: What about the mortality at 250 ppm ([1]; no fertilizer, 250 ppm AI) of the same compound?
Answer: 71%

Question: And the mortality at 500 ppm ([1]; no fertilizer, 500 ppm AI)?
Answer: 92%

Question: What about the mortality at 1000 ppm ([1]; no fertilizer, 1000 ppm AI) of the same compound?
Answer: 100%

Question: And the mortality at 25 ppm [1, 3]?
Answer: 31%

Question: And the mortality at 100 ppm [1, 4]?
Answer: 29%

Question: And the mortality at 250 ppm ([1]; w/15% Nachurs 6-24-6, 250 ppm AI)?
Answer: 79%

Question: And the mortality at 500 ppm ([1]; w/15% Nachurs 6-24-6, 500 ppm AI)?
Answer: 100%

Question: And the mortality at 1000 ppm ([1]; w/15% Nachurs 6-24-6, 1000 ppm AI)?
Answer: 100%

Question: What about the mortality at 25 ppm [1, 5] of the same compound?
Answer: 25%

Question: And the mortality at 100 ppm [1, 6]?
Answer: 29%

Question: And the mortality at 250 ppm ([1]; w/30% Nachurs 6-24-6, 250 ppm AI)?
Answer: 79%

Question: What about the mortality at 500 ppm ([1]; w/30% Nachurs 6-24-6, 500 ppm AI) of the same compound?
Answer: 96%

Question: What about the mortality at 1000 ppm ([1]; w/30% Nachurs 6-24-6, 1000 ppm AI) of the same compound?
Answer: 100%

Question: And the mortality at 25 ppm ([2]; no fertilizer, 25 ppm AI)?
Answer: 0%

Question: And the mortality at 50 ppm ([2]; no fertilizer, 50 ppm AI)?
Answer: 0%

Question: What about the mortality at 100 ppm ([2]; no fertilizer, 100 ppm AI) of the same compound?
Answer: 18%

Question: What about the mortality at 200 ppm ([2]; no fertilizer, 200 ppm AI) of the same compound?
Answer: 86%

Question: And the mortality at 400 ppm ([2]; no fertilizer, 400 ppm AI)?
Answer: 100%

Question: What about the mortality at 25 ppm [2, 3] of the same compound?
Answer: 4%

Question: What about the mortality at 50 ppm ([2]; w/15% Nachurs 6-24-6, 50 ppm AI) of the same compound?
Answer: 14%

Question: What about the mortality at 100 ppm [2, 4] of the same compound?
Answer: 71%

Question: What about the mortality at 200 ppm ([2]; w/15% Nachurs 6-24-6, 200 ppm AI) of the same compound?
Answer: 100%

Question: What about the mortality at 400 ppm ([2]; w/15% Nachurs 6-24-6, 400 ppm AI) of the same compound?
Answer: 96%

Question: What about the mortality at 25 ppm [2, 5] of the same compound?
Answer: 4%

Question: And the mortality at 50 ppm ([2]; w/30% Nachurs 6-24-6, 50 ppm AI)?
Answer: 11%

Question: And the mortality at 100 ppm [2, 6]?
Answer: 86%

Question: And the mortality at 200 ppm ([2]; w/30% Nachurs 6-24-6, 200 ppm AI)?
Answer: 96%

Question: What about the mortality at 400 ppm ([2]; w/30% Nachurs 6-24-6, 400 ppm AI) of the same compound?
Answer: 100%
